What was measured:
Format in all cases: in vivo
[1] = system: Mature C57B1/6J female mice; experiment: Stimulation of ovulation in PMSG-primed mice (corpora haemorrhagica on the ovaries)
Description: Mature C57B1/6J female mice were treated in the following fashion: On day 0 all mice received a subcutaneous (s.'c) superovulating dose of pregnant mare serum gonadotraphin (PMSG) to stimulate the growth of ovarian follicles. After 48 hours mice received various doses of LHRH, Lys-6-LHRH or saline. On day 3 mice were sacrificed and examined for ovulation. Ovulation was assessed by examining for the presence of corpora haemorrhagica on the ovaries using a stereoscopic microscope at […].

[2] = system: S. typhimurium; experiment: Systemic S. typhimurium infection in mice: survival and clearance; details: for Elimination of systemic S. typhimurium infection / prevention of death (in words): 1 mg total dose; for Suvivors (day 10) Number / Suvivors (day 10) Percentage: total dose 1 mg as five doses 12 h apart from day 3, mice fed 1×10^6 S. typhimurium on day 0
[3] = system: C57B1/6J mice; experiment: Serum antibody response (ELISA titre) after oral feeding of antigen; details: two feedings of antigen (50 μg) on days 1 and 14, reciprocal of antiserum dilution giving ELISA reading 0.5, day 21, mean of 15 mice ±1 SD
Description: Female C57B1/6J mice (18-22 g) were obtained from the Animal Resources Centre (Perth, Western Australia). All mice received conjugate preparations in 0.5 ml of 0.1M carbonate/bicarbonate buffer pH9.5 using a specially prepared feeding needle. Mice were fed on days 0 and 14. On day 21 the mice were bled from the orbital plexus. Antibody titres of serum were determined by ELISA using alkaline phosphatase conjugated anti-mouse serum.
The possible potential for VB12 deliver protein molecules, covalently linked to it, from the intestine to the circulation was investigated. The immune response generated to this complex was compared to that generated by the protein fed alone or together with VB12, or to the protein injected intramuscularly.
* The reciprocal of the antiserum dilution that gave an ELISA reading of
0.5 afer 45min. at 37° C. on day 21 after initial feeding. Each
value represents the mean of 15 mice ±1 standard deviation. Mice
received two feedings of antigen (50 μg) on days 1 and 14. On day 21
mice were bled from the retro orbital plaxus and the antibody titres
measured by ELISA as described previously (RussellJones et al., 1984).
Each protein molecule was substituted with an average of 5 VB12 groups.

[4] = system: C57B1/6J mice; experiment: Footpad assay for DTH (footpad swelling); details: oral 50 μg priming dose, challenge with 10 μg immunizing antigen in right foot, swelling after 24 h
Description: Feeding of these VB12-protein complexed was also capable of stimulating good cellular immunity (as measured by the footpad assay for DTH).
+ Footpad swelling was measured in mm using a microcaliper. All groups
received a 50 μg priming dose of antigen followed by challenge with 10
μg of the immunizing antigen in the right foot and 10 μg of
ovalbumen in the left footpad. Swelling was measured after 24 h.

lutenizing hormone releasing hormone [LHRH]
Number of mice ovulating ([1]; Table 2, PMSG 4 IU day 0, 50 μg iv day 2): 1/3
Number of mice ovulating ([1]; Table 2, PMSG 8 IU day 0, 50 μg iv day 2): 1/4
Number of mice ovulating ([1]; Table 3, PMSG 8 IU day 0, 50 μg/os day 2): 1/5
Number of mice ovulating ([1]; Table 4, PMSG 8 IU day 0, 6 μg/os day 2): 0/5
Number of mice ovulating ([1]; Table 4, PMSG 8 IU day 0, 12 μg/os day 2): 0/5
Number of mice ovulating ([1]; Table 4, PMSG 8 IU day 0, 25 μg/os day 2): 1/5
Number of mice ovulating ([1]; Table 4, PMSG 8 IU day 0, 50 μg/os day 2): 1/5

neomycin
Elimination of systemic S. typhimurium infection / prevention of death (in words) ([2]; i.m. injection): could be saved
Suvivors (day 10) Number ([2]; i.m.): 2
Suvivors (day 10) Percentage ([2]; i.m.): 100%
Elimination of systemic S. typhimurium infection / prevention of death (in words) ([2]; oral): not able to eliminate systemic infection
Suvivors (day 10) Number ([2]; oral): 0
Suvivors (day 10) Percentage ([2]; oral): 0%

vitamin B12 [VB12]
Serum Antibody Response [3]: < 4
Footpad Response (footpad swelling) [4]: 0 mm
Suvivors (day 10) Number ([2]; oral): 0
Suvivors (day 10) Percentage ([2]; oral): 0%
